Data on five compounds can be found in patent US11401286B2 (Tetra Discovery Partners, LLC, priority 2012, dated 2022).

Counter-ions that a name gives are not always drawn.

For test [1], the system named is recombinant human PDE4. As to conditions: reported value; read-out: IC50 with respect to inhibiting recombinant human PDE4; cited from earlier work.
Test [2] concerns the target PDE4D7 (Homo sapiens (Human), UniProt Q08499). As to conditions: read-out: PDE4D7 IC50; PDE4D7 without asterisk.

Chain of PDE4D7 (Q08499 other isoform, or with tags, fused parts or gaps): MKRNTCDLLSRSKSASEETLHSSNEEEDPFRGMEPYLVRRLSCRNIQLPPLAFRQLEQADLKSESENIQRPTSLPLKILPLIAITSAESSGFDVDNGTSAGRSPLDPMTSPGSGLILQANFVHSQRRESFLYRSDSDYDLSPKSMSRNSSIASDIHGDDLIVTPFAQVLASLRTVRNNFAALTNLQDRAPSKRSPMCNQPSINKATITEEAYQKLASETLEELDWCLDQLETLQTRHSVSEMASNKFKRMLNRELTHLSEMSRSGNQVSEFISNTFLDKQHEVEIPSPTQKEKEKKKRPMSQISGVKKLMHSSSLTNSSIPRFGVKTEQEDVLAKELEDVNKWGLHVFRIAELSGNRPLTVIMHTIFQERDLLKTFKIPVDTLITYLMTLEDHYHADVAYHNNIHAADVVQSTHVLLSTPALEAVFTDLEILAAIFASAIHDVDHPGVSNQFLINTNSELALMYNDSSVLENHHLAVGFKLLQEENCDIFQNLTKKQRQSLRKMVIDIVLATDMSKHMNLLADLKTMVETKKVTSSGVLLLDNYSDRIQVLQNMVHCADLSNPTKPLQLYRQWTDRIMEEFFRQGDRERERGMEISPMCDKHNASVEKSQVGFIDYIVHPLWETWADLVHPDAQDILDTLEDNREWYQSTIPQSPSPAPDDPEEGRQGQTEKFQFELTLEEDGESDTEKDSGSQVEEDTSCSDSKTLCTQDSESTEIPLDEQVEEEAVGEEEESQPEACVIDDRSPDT

The term IC50 denotes the point on the concentration scale where inhibition reaches its midpoint. In the case of `COc1ccc(C2CNC(=O)C2)cc1OC1CCCC1` (centres unmarked) [rolipram], the IC50 in test [1] is about 0.2 µM.

With `NC(=O)Cc1ccc(Nc2nc(C3CCCC3)nc3c2CCC3)cc1` [Example 216, 2-(4-((2-Cyclopentyl-6,7-dihydro-5H-cyclopenta[d]pyrimidin-4-yl)amino)phenyl)acetamide], the IC50 in test [2] was under 1 µM.

In the case of `CCOC(=O)Cc1ccc(Nc2cc(C3CC3)nc(-c3cccc(Cl)c3)n2)nc1` [Example 211, Ethyl 2-(6-((2-(3-chlorophenyl)-6-cyclopropylpyrimidin-4-yl)amino)pyridin-3-yl)acetate], the IC50 in test [2] is over 1 µM.

Turning to `CCc1cc(Nc2ccc(CC(N)=O)cc2)nc(-c2cccc(Cl)c2)n1` [Example 171, 2-(4-((2-(3-Chlorophenyl)-6-ethylpyrimidin-4-yl)amino)phenyl)acetamide], the IC50 in test [2] was under 1 µM.

As for `OCC(O)c1ccc(Nc2cc(-c3cccc(Cl)c3)nc3c2CCC3)cc1` (centres unmarked) [Example 115, 1-(4-((2-(3-Chlorophenyl)-6,7-dihydro-5H-cyclopenta[b]pyridin-4-yl)amino)phenyl)ethane-1,2-diol hydrochloride], the IC50 in test [2] was over 1 µM.
